Experimental data reported in patent US20260028354A1, “TETRAHYDRONAPHTHALENE DERIVATIVES AS ESTROGEN RECEPTOR DEGRADERS” (REGENT OF THE UNIVERSITY OF MICHIGAN, priority 2022, published 2026).
Where two headings read alike, the source gives them in different places.

Experiments:
[1] = target: CRBN/DDB1 (Homo sapiens (Human), UniProt Q96SW2); format: binding; settings: His tagged CRBN+DDB1, Cy5-labeled Thalidomide probe, one hour; read-out: CRBN HTRF IC50
Description: The binding potency was determined using HTRF assay technology (Perkin Elmer). Compounds were serially diluted in DMSO and […] volume was transferred to white 384-well plate.

[2] = target: ER in MCF-7 cells (Homo sapiens (Human), UniProt P03372); assay: In-cell Western (ICW) ER degradation assay in MCF-7 cells; format: cell-based; settings: for DC50: MCF-7, ER degradation, read-out: MCF7 DC50
[3] = target: ER in T47D cells (Homo sapiens (Human), UniProt P03372); assay: In-cell Western (ICW) ER degradation assay in T47D cells; format: cell-based; settings: for DC50: ER degradation
[4] = MCF7, MCF-7, maximal ER degradation, 16 hrs treatment, read-out: MCF7 Dmax
[5] = maximal ER degradation, 16 hrs treatment, read-out: T47D Dmax
[6] = MCF7, read-out: MCF7 Dmax, MCF-7, maximal ER degradation, 16 hrs treatment
[7] = read-out: T47D Dmax, T47D, maximal ER degradation, 16 hrs treatment

ER in T47D cells, sequence (P03372 whole entry): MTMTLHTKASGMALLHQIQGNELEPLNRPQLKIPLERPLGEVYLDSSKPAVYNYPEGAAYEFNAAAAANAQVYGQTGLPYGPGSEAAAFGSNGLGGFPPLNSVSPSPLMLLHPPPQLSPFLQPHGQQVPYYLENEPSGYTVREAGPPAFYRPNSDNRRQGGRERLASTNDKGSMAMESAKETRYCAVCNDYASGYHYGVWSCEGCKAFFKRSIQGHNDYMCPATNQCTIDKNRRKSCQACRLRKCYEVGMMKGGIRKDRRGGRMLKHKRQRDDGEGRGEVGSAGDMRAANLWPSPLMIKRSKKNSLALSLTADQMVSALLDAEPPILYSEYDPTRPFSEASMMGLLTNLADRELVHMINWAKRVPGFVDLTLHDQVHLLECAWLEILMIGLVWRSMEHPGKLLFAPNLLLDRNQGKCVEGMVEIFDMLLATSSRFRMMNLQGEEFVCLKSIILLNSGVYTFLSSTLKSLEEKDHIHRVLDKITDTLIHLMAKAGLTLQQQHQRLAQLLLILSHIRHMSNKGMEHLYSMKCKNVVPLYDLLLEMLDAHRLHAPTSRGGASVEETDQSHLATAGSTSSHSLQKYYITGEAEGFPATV
ER in MCF-7 cells, sequence (P03372 whole entry): as above
CRBN/DDB1, sequence (Q96SW2 whole entry, species assumed): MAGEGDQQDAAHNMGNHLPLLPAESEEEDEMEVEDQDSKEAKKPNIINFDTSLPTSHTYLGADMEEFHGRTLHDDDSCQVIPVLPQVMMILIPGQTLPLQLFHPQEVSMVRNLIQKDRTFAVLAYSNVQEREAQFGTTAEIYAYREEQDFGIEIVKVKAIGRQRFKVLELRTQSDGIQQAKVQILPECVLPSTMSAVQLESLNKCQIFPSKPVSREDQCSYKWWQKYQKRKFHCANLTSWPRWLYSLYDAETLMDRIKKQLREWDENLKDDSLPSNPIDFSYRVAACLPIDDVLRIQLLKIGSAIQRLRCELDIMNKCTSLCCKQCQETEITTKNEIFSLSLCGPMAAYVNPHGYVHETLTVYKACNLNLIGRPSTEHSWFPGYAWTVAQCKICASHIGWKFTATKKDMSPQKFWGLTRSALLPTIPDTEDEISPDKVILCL
CRBN/DDB1, sequence (Q16531 whole entry partner, species assumed): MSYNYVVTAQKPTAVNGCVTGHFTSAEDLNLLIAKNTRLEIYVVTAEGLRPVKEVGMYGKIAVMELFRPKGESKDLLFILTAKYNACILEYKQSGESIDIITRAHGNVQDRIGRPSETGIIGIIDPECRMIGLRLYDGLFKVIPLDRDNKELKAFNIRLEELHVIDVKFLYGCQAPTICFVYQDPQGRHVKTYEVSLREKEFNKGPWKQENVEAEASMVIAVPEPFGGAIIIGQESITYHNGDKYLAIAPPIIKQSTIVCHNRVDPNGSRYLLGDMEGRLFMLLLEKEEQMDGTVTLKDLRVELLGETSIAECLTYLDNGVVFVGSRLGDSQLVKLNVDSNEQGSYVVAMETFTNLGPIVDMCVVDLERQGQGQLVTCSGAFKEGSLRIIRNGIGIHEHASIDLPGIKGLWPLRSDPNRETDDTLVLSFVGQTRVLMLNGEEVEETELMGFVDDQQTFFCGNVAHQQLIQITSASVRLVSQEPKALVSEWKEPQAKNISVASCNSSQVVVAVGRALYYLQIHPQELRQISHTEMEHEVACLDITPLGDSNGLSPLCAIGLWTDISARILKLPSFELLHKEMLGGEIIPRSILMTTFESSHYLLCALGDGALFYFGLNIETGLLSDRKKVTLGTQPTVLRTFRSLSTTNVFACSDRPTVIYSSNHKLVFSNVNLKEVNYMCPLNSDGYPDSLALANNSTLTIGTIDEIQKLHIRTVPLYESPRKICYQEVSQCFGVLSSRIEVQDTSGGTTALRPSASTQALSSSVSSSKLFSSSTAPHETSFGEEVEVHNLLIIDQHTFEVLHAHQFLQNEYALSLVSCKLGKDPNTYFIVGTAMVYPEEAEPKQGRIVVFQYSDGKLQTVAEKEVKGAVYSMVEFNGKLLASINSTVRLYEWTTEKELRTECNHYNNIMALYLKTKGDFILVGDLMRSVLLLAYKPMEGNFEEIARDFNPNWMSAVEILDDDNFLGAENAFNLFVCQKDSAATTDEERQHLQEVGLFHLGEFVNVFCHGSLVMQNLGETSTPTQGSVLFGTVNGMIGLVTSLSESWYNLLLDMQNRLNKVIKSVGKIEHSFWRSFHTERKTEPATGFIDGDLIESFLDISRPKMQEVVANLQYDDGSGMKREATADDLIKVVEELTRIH

| Structure (SMILES) | IC50 [1] [nM] | Dmax [2, 4] [%] | DC50 ([2]; 16 hrs treatment) [nM] | DC50 ([3]; 16 hrs treatment) [nM] | Dmax [3, 5] [%] | Dmax [2, 6] [%] | Dmax [3, 7] [%] |
| --- | --- | --- | --- | --- | --- | --- | --- |
| O=C1CC[C@H](Nc2ccc(C3CCN(C[C@@H]4COC5(CCN(c6ccc([C@H]7c8ccc(O)cc8CC[C@H]7c7ccccc7)cc6)CC5)C4)CC3)cc2)C(=O)N1 (single isomer, unassigned) [Compound A50] | 50 to 500 | 50 to 75 | < 1 | < 1 | 50 to 75 | – | – |
| O=C1CC[C@H](N2Cc3c(ccc4c3OCC43CCN(CC4CC5(CCN(c6ccc([C@H]7c8ccc(O)cc8CC[C@H]7c7ccccc7)cc6F)CC5)C4)CC3)C2=O)C(=O)N1 [Compound A148, (S)-3-(1′-((7-(2-fluoro-4-((1S,2R)-6-hydroxy-2-phenyl-1,2,3,4-tetrahydronaphthalen-1-yl)phenyl)-7-azaspiro[3.5]nonan-2-yl)methyl)-6-oxo-6,8-dihydro-2H,7H-spiro[furo[2,3-e]isoindole-3,4′-piperidin]-7-yl)piperidine-2,6-dione] | < 50 | – | < 1 | < 1 | – | 50 to 75 | > 75 |
| COc1cc(N2CCC(CN3CCN4c5ccc6c(c5OC[C@@H]4C3)CN([C@@H]3CCC(=O)NC3=O)C6=O)CC2)ccc1[C@@H]1c2ccc(O)cc2CC[C@@H]1c1ccccc1 (stereo in doubt) [Compound A23, (R)-3-((S)-7-((1-(4-((1S,2S)-6-hydroxy-2-phenyl-1,2,3,4-tetrahydronaphthalen-1-yl)-3-methoxyphenyl)piperidin-4-yl)methyl)-1-oxo-1,3,5,5a,6,7,8,9-oCtahydro-2H-pyrazino [1′,2′:4,5][1,4]oxazino[2,3-e]isoindol-2-yl)piperidine-2,6-dione] | < 50 | 25 to 50 | 10 to 100 | 10 to 100 | 50 to 75 | – | – |
| O=C1CC[C@H](N2Cc3cc4c(cc3C2=O)OC[C@H]2CN(C[C@H]3COC5(CCN(c6ccc([C@@H]7c8ccc(O)cc8CC[C@@H]7c7ccccc7)cc6)CC5)C3)CCN42)C(=O)N1 (single isomer, unassigned) [Compound A17] | 500 to 5000 | 25 to 50 | 1 to 10 | 1 to 10 | 25 to 50 | – | – |
| COc1cc(N2CC3(CC(CN4CCN5c6ccc7c(c6OC[C@H]5C4)CN([C@H]4CCC(=O)NC4=O)C7=O)CO3)C2)ccc1[C@@H]1c2ccc(O)cc2CC[C@@H]1c1ccccc1 (single isomer, unassigned) [Compound A48] | 50 to 500 | 50 to 75 | 1 to 10 | 1 to 10 | 50 to 75 | – | – |
| COc1cc(N2CCC3(CC2)CC(CN2CCC(c4ccc(N[C@H]5CCC(=O)NC5=O)c(F)c4)CC2)C3)ccc1[C@@H]1c2ccc(O)cc2CC[C@@H]1c1ccccc1 (single isomer, unassigned) [Compound A109] | 500 to 5000 | 25 to 50 | < 1 | < 1 | 50 to 75 | – | – |
| O=C1CC[C@@H](Nc2ccc(C3CCN(CC4CC5(CCN(c6ccc([C@@H]7c8ccc(O)cc8CC[C@@H]7c7ccccc7)cc6)CC5)C4)CC3)cc2)C(=O)N1 (single isomer, unassigned) [Compound A66] | 50 to 500 | 50 to 75 | 1 to 10 | 1 to 10 | 50 to 75 | – | – |
| COc1cc(N2CCC(CN3CC[C@@]4(c5ccc(N[C@@H]6CCC(=O)NC6=O)cc5)C(C3)C4(F)F)CC2)ccc1[C@@H]1c2ccc(O)cc2CC[C@@H]1c1ccccc1 (mixture of isomers) [Compound A88, (3R)-3-((4-((1R)-7,7-difluoro-3-((1-(4-((1SR,2SR)-6-hydroxy-2-phenyl-1,2,3,4-tetra-hydronaphthalen-1-yl)-3-meth-oxyphenyl)piperidin-4-yl)meth-yl)-3-azabicyclo[4.1.0]heptan-6-yl)phenyl)amino)piperidine-2,6-dione] | > 5000 | – | 1 to 10 | < 1 | – | 50 to 75 | 25 to 50 |
| O=C1CCC(NC(=O)c2ccc(N3CCN(CC4CCN(c5ccc([C@@H]6c7ccc(O)cc7CC[C@@H]6c6ccccc6)cc5)CC4)CC3)cn2)C(=O)N1 (stereo partly drawn) [Compound A58, N-(2,6-dioxopiperidin-3-yl)-5-(4-((1-(4-((1R,2S)-6-hydroxy-2-phenyl-1,2,3,4-tetrahydro-naphthalen-1-yl)phenyl)piper-idin-4-yl)methyl)piperazin-1-yl)picolinamide] | > 5000 | > 75 | < 1 | < 1 | 50 to 75 | – | – |
| COc1cc(N2CC3(CC(CN4CCN5c6ccc7c(c6OC[C@H]5C4)CN([C@H]4CCC(=O)NC4=O)C7=O)CO3)C2)ccc1[C@H]1c2ccc(O)cc2CC[C@H]1c1ccccc1 (single isomer, unassigned) [Compound A47] | 50 to 500 | 50 to 75 | 10 to 100 | 1 to 10 | 25 to 50 | – | – |
| O=C1CC[C@@H](Nc2ccc(C3CCN(C[C@@H]4COC5(CCN(c6ccc([C@@H]7c8ccc(O)cc8CC[C@@H]7c7ccccc7)cc6)CC5)C4)CC3)c(F)c2)C(=O)N1 (single isomer, unassigned) [Compound A62] | 50 to 500 | 25 to 50 | 10 to 100 | 1 to 10 | 25 to 50 | – | – |
| COc1cc(N2CCC(CN3CC[C@]4(c5ccc(N[C@H]6CCC(=O)NC6=O)cc5)[C@H](C3)C4(F)F)CC2)ccc1[C@@H]1c2ccc(O)cc2CC[C@@H]1c1ccccc1 [Compound A90, (S)-3-((4-((1R,6R)-7,7-difluoro-3-((1-(4-((1S,2S)-6-hydroxy-2-phenyl-1,2,3,4-tetra-hydronaphthalen-1-yl)-3-meth-oxyphenyl)piperidin-4-yl)meth-yl)-3-azabicyclo[4.1.0]heptan-6-yl)phenyl)amino)piperidine-2,6-dione] | > 5000 | – | < 1 | < 1 | – | 25 to 50 | 25 to 50 |
| COc1cc(N2CCC(CN3CC[C@]4(c5ccc(N[C@@H]6CCC(=O)NC6=O)cc5)[C@H](C3)C4(F)F)CC2)ccc1[C@@H]1c2ccc(O)cc2CC[C@@H]1c1ccccc1 [Compound A89, (R)-3-((4-((1R,6R)-7,7-difluoro-3-((1-(4-((1S,2S)-6-hydroxy-2-phenyl-1,2,3,4-tetra-hydronaphthalen-1-yl)-3-meth-oxyphenyl)piperidin-4-yl)meth-yl)-3-azabicyclo[4.1.0]heptan-6-yl)phenyl)amino)-piperidine-2,6-dione] | > 5000 | – | < 1 | < 1 | – | 25 to 50 | 25 to 50 |
| O=C1CC[C@@H](Nc2ccc([C@@]34CCN(CC5CCC6(CC5)CN(c5ccc([C@@H]7c8ccc(O)cc8CC[C@@H]7c7ccccc7)cc5)C6)C[C@@H]3C4(F)F)cc2)C(=O)N1 [Compound A64, (R)-3-((4-((1R,6R)-7,7-difluoro-3-((2-(4-((1R,2S)-6-hydroxy-2-phenyl-1,2,3,4-tetra-hydronaphthalen-1-yl)phenyl)-2-azaspiro[3.5]nonan-7-yl)-methyl)-3-azabicyclo[4.1.0]heptan-6-yl)phenyl)amino)-piperidine-2,6-dione] | > 5000 | – | 1 to 10 | 1 to 10 | – | 50 to 75 | 50 to 75 |
| O=C1CC[C@H](Nc2ccc(C3CCN(C[C@@H]4COC5(CCN(c6ccc([C@H]7c8ccc(O)cc8CC[C@H]7c7ccccc7)cc6)CC5)C4)CC3)c(F)c2)C(=O)N1 (single isomer, unassigned) [Compound A59] | 50 to 500 | < 25 | < 1 | > 100 | < 25 | – | – |
| COc1cc(N2CCC(CN3CCC4(CC3)COc3c4ccc4c3CN([C@H]3CCC(=O)NC3=O)C4=O)CC2)ccc1[C@@H]1c2ccc(O)cc2CC[C@@H]1c1ccccc1 [Compound A37, (R)-3-(1′-((1-(4-((1R,2R)-6-hydroxy-2-phenyl-1,2,3,4-tetrahydronaphthalen-1-yl)-3-methoxyphenyl)piperidin-4-yl)methyl)-6-oxo-6,8-dihydro-2H,7H-spiro[furo[2,3-e]iso-indole-3,4′-piperidin]-7-yl)-piperidine-2,6-dione] | < 50 | – | < 1 | < 1 | – | 25 to 50 | 25 to 50 |
| O=C1CC[C@H](Nc2ccc(C3CCN(C[C@H]4COC5(CCN(c6ccc([C@H]7c8ccc(O)cc8CC[C@H]7c7ccccc7)cc6)CC5)C4)CC3)cc2)C(=O)N1 (single isomer, unassigned) [Compound A49] | 50 to 500 | 50 to 75 | < 1 | < 1 | 50 to 75 | – | – |
| O=C1CCC(Nc2ccc(C34CCN(C[C@@H]5COC6(CCN(c7ccc([C@@H]8c9ccc(O)cc9CC[C@@H]8c8ccccc8)cc7)CC6)C5)CC3C4(F)F)cc2)C(=O)N1 (stereo partly drawn) [Compound A45, (3S)-3-((4-(7,7-difluoro-3-(((R)-8-(4-((1R,2S)-6-hydroxy-2-phenyl-1,2,3,4-tetrahydro-naphthalen-1-yl)phenyl)-1-oxa-8-azaspiro[4.5]decan-3-yl)-methyl)-3-azabicyclo[4.1.0]heptan-6-yl)phenyl)amino)-piperidine-2,6-dione] | > 5000 | – | > 100 | > 100 | – | < 25 | < 25 |
| O=C1CC[C@@H](Nc2ccc(C3CCN(C[C@@H]4COC5(CCN(c6ccc([C@@H]7c8ccc(O)cc8CC[C@@H]7c7ccccc7)cc6)CC5)C4)CC3)cc2)C(=O)N1 (single isomer, unassigned) [Compound A29] | 50 to 500 | 25 to 50 | 10 to 100 | 10 to 100 | 25 to 50 | – | – |
| COc1nc(C(=O)NC2CCC(=O)NC2=O)ccc1N1CCN(CC2CCN(c3ccc([C@@H]4c5ccc(O)cc5CC[C@@H]4c4ccccc4)cc3)CC2)CC1 (single isomer, unassigned) [Compound A1] | 500 to 5000 | – | – | 1 to 10 | 25 to 50 | – | – |
